Data on 13 molecules can be found in patent US20230081720A1, “MCL-1 INHIBITOR ANTIBODY-DRUG CONJUGATES AND METHODS OF USE” (NOVARTIS AG, priority 2019, published 2023).

Usually IC50 stands for the concentration that inhibits the measured activity by half. What is called koff is the first-order rate constant of dissociation. As usually defined, the kon is a measure of how fast the partners come together.

Assay [1] deals with EOL-1. The format is cell-based. How it is done:
(§1) Cell lines were cultured in media that is optimal for their growth at 5% CO2, 37° C. in a tissue culture incubator. Prior to seeding for the proliferation assay, the cells were split at least 2 days before the assay to ensure optimal growth density. […] Cell viability and cell density were determined using a cell counter (Vi-Cell XR Cell Viability Analyzer, Beckman Coulter). […] Cells were seeded at a density of 1,000 cells per well in 45 μL of standard growth media. Plates were incubated at 5% CO2, 37° C. overnight in a tissue culture incubator. […] Each drug concentration was tested in quadruplets. […] Plates were incubated at room temperature for 10 minutes to stabilize luminescent signals prior to reading using a luminescence reader (EnVision Multilabel Plate Reader, PerkinElmer). To evaluate the effect of the drug treatments, luminescent counts from wells containing untreated cells (100% viability) were used to normalize treated samples.

The test system of assay [2] is MONO-MAC-1. The format is cell-based. The conditions noted are these: CD74 ADC with the named linker-payload, 5 days. How it is done: as §1
For assay [3], the system named is NOMO-1. The format is cell-based. How it is done: as §1
Assay [4] deals with soluble cyno CD74 (cyno). The experiment in a line: SPR, Biacore 8K; IgG captured by anti-IgG Fc, soluble CD74 as analyte; 1:1 model, apparent kinetics. Background: In SPR one partner is held on a chip, and binding of the other changes the refractive index at the surface.
Assay [5] has as its target T1, soluble human CD74 (human, UniProt P04233-2 73-232, limits assumed).
T1 construct: CD74' flowed over as analyte; also called human CD74 protein
T1 sequence (looked up): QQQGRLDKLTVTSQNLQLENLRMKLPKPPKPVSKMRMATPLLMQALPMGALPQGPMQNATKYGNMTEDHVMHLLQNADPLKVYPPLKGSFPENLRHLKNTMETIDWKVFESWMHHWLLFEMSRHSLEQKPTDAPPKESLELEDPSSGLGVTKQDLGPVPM
Described as above. From the text: Double reference subtraction was completed to generate the final data.

[6] abbreviates: CD74 ADC with the named linker-payload, 5 days.
Setting [7] is: CD74 ADC with the named linker-payload, 5 days, read-out: EOL-1 IC50.
Setting [8] is: CD74 ADC with the named linker-payload, 5 days, read-out: NOMO-1 IC50.

Where two headings read alike, the source gives them in different places.

soluble cyno CD74 (cyno), sequence (P04233 other isoform, or with tags, fused parts or gaps): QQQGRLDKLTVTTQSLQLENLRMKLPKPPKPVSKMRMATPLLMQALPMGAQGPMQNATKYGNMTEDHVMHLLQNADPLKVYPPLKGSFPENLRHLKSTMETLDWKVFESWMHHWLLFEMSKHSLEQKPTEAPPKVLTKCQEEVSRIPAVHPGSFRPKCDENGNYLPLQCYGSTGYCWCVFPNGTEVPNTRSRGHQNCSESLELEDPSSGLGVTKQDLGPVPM

For the molecule `COCCOCCOCCOCCOCCOCCOCCOCCOCCOCCOCCOCCOCCOCCOCCOCCOCCOCCOCCOCCOCCOCCOCCOCCn1cc(COCc2cc(NC(=O)[C@H](CCCNC(N)=O)NC(=O)[C@@H](NC(=O)CCOCCN3C(=O)C=CC3=O)C(C)C)ccc2C[N+]2(C)CCN(CCOc3ccc(-c4c(-c5ccc(F)cc5)sc5ncnc(O[C@H](Cc6ccccc6OCc6ccnc(-c7ccccc7OC)n6)C(=O)O)c45)c(C)c3Cl)CC2)nn1` [L5-P1], the half-inhibitory concentration (IC50) in assay [1] was determined as 1.02 nM; in assay [2], 7.95 nM; in assay [3], 2.22 nM. In assay [1] (setting [6]), the “EOL-1 Amax” value is given as 75.06. In addition, the “MONO-MAC-1 Amax” value in assay [2] is reported as 84.9. In assay [3] (setting [6]), the “NOMO-1 Amax” value is 55.58.
As to `COCCOCCOCCOCCOCCOCCOCCOCCOCCOCCOCCOCCOCCOCCOCCOCCOCCOCCOCCOCCOCCOCCOCCOCCC(=O)N(C)Cc1cc(NC(=O)[C@H](CCCNC(N)=O)NC(=O)[C@@H](NC(=O)CCOCCN2C(=O)C=CC2=O)C(C)C)ccc1C[N+]1(C)CCN(CCOc2ccc(-c3c(-c4ccc(F)cc4)sc4ncnc(O[C@H](Cc5ccccc5OCc5ccnc(-c6ccccc6OC)n5)C(=O)O)c34)c(C)c2Cl)CC1` [L30-P1], the values for the half-inhibitory concentration (IC50) in assay [1], in assay [2] and in assay [3] were 0.251 nM, 5.45 nM and 1.62 nM, respectively. Also, the “EOL-1 Amax” value in assay [1] (setting [6]) stood at 197.6. In addition, in assay [2], the “MONO-MAC-1 Amax” value was determined as 86.78. Also, the “NOMO-1 Amax” value in assay [3] (setting [6]) worked out at 78.95.
Regarding `COCCOCCOCCOCCOCCOCCOCCOCCOCCOCCOCCOCCOCCOCCOCCOCCC(=O)N(C)Cc1cc(NC(=O)[C@H](CCCNC(N)=O)NC(=O)[C@@H](NC(=O)CCOCCN2C(=O)C=CC2=O)C(C)C)ccc1C[N+]1(C)CCN(CCOc2ccc(-c3c(-c4ccc(F)cc4)sc4ncnc(O[C@H](Cc5ccccc5OCc5ccnc(-c6ccccc6OC)n5)C(=O)O)c34)c(C)c2Cl)CC1` [L31-P1], the IC50 is 0.466 nM in assay [1], 3.96 nM in assay [2] and 1.2 nM in assay [3]. Further, the “EOL-1 Amax” value in assay [1] (setting [6]) was determined as 83.98. In addition, the “MONO-MAC-1 Amax” value in assay [2] came out at 110.3. The “NOMO-1 Amax” value in assay [3] (setting [6]) amounted to 73.4.
Turning to `COCCOCCOCCOCCOCCOCCOCCOCCOCCOCCOCCOCCC(=O)N(C)Cc1cc(NC(=O)[C@H](CCCNC(N)=O)NC(=O)[C@@H](NC(=O)CCOCCN2C(=O)C=CC2=O)C(C)C)ccc1C[N+]1(C)CCN(CCOc2ccc(-c3c(-c4ccc(F)cc4)sc4ncnc(O[C@H](Cc5ccccc5OCc5ccnc(-c6ccccc6OC)n5)C(=O)O)c34)c(C)c2Cl)CC1` [L32-P1], the “EOL-1 Amax” value in assay [1] (setting [6]) came to 125. Further, the values for the IC50 in assay [1] (setting [7]), in assay [2] and in assay [3] (setting [8]) were 0.16 nM, 6.72 nM and 1.5 nM, respectively. The “MONO-MAC-1 Amax” value in assay [2] is given as 97.57. In addition, in assay [3] (setting [6]), the “NOMO-1 Amax” value was 62.58.
For `COc1ccccc1-c1nccc(COc2ccccc2C[C@@H](Oc2ncnc3sc(-c4ccc(F)cc4)c(-c4ccc(OCCN5CC[N+](C)(Cc6ccc(NC(=O)[C@H](CCCNC(N)=O)NC(=O)[C@@H](NC(=O)CCOCCN7C(=O)C=CC7=O)C(C)C)cc6COCc6cn(CCOCCOCCOCCOCCOCCOCCOCCOCCOCCOCCOCCOCCC(=O)O)nn6)CC5)c(Cl)c4C)c23)C(=O)O)n1` [L33-P1], the IC50 was found to be 0.62 nM in assay [1], 6.72 nM in assay [2] and 2.58 nM in assay [3]. The “EOL-1 Amax” value in assay [1] (setting [6]) was 66.96. For the same molecule, the “MONO-MAC-1 Amax” value in assay [2] stood at 89.18. Moreover, the “NOMO-1 Amax” value in assay [3] (setting [6]) was 58.95.
`COCCOCCOCCOCCOCCOCCOCCOCCOCCOCCOCCOCCOCCOCCOCCOCCn1cc(COCc2cc(NC(=O)[C@H](CCCNC(N)=O)NC(=O)[C@@H](NC(=O)CCOCCN3C(=O)C=CC3=O)C(C)C)ccc2C[N+]2(C)CCN(CCOc3ccc(-c4c(-c5ccc(F)cc5)sc5ncnc(O[C@H](Cc6ccccc6OCc6ccnc(-c7ccccc7OC)n6)C(=O)O)c45)c(C)c3Cl)CC2)nn1` [L34-P1]: the “EOL-1 Amax” value in assay [1] (setting [6]) was found to be 70.92. The concentration for half-maximal inhibition (IC50) in assay [1] (setting [7]) is 0.736 nM; in assay [2], 6.28 nM; in assay [3] (setting [8]), 2.96 nM. The “MONO-MAC-1 Amax” value in assay [2] is 104.4. The “NOMO-1 Amax” value in assay [3] (setting [6]) came out at 66.95.
`COc1ccccc1-c1nccc(COc2ccccc2C[C@@H](Oc2ncnc3sc(-c4ccc(F)cc4)c(-c4ccc(OCCN5CC[N+](C)(Cc6ccc(NC(=O)[C@H](CCCNC(N)=O)NC(=O)[C@@H](NC(=O)CCOCCN7C(=O)C=CC7=O)C(C)C)cc6CN(C)C(=O)OC[C@H](NC(=O)CS(=O)(=O)O)C(=O)O)CC5)c(Cl)c4C)c23)C(=O)O)n1` [L77-P1]: the IC50 in assay [1] worked out at 0.383 nM; in assay [2] it was 0.987 nM; in assay [3] it was 3.19 nM. The “EOL-1 Amax” value in assay [1] (setting [6]) came out at 102.6. The “MONO-MAC-1 Amax” value in assay [2] is on record as 108.2. Also, in assay [3] (setting [6]), the “NOMO-1 Amax” value is 48.53.

B1: milatuzumab (antibody, V domains shown)
VH: QVQLQQSGSELKKPGASVKVSCKASGYTFTNYGVNWIKQAPGQGLQWMGWINPNTGEPTFDDDFKGRFAFSLDTSVSTAYLQISSLKADDTAVYFCSRSRGKNEAWFAYWGQGTLVTVSS
VL: DIQLTQSPLSLPVTLGQPASISCRSSQSLVHRNGNTYLHWFQQRPGQSPRLLIYTVSNRFSGVPDRFSGSGSGTDFTLKISRVEAEDVGVYFCSQSSHVPPTFGAGTRLEIK
notes: also called hLL1; WT IgG
Take B1: in assay [4], the Kd is 16 nM, the koff was found to be 0.00088 s⁻¹ and the kon amounted to 56000 M⁻¹ s⁻¹. In addition, in assay [5], the Kd came out at 4.9 nM, the koff is 0.00051 s⁻¹ and the kon turned out to be 100000 M⁻¹ s⁻¹.

B2: VHmil x VK1bNQ (antibody, V domains shown)
VH: QVQLQQSGSELKKPGASVKVSCKASGYTFTNYGVNWIKQAPGQGLQWMGWINPNTGEPTFDDDFKGRFAFSLDTSVSTAYLQISSLKADDTAVYFCSRSRGKNEAWFAYWGQGTLVTVSS
VL: DVVMTQSPLSLPVTLGQPASISCRSSQSLVHRNQNTYLHWYQQRPGQSPRLLIYTVSNRFSGVPDRFSGSGSGTDFTLKISRVEAEDVGVYFCSQSSHVPPTFGQGTKLEIK
notes: Tested as IgG; also called VHmil × VK1bNQ; hLL1 heavy chain with hzLL1-Vk1b (NQ) light chain
In the case of B2, in assay [4], the Kd came out at 5.3 nM, the koff turned out to be 0.00058 s⁻¹ and the on-rate (kon) amounted to 110000 M⁻¹ s⁻¹. In assay [5], the Kd came out at 0.76 nM, the koff was 0.00016 s⁻¹ and the on-rate constant (kon) amounted to 220000 M⁻¹ s⁻¹.

B3: Mil_HCx hzVk1a (antibody, V domains shown)
VH: QVQLQQSGSELKKPGASVKVSCKASGYTFTNYGVNWIKQAPGQGLQWMGWINPNTGEPTFDDDFKGRFAFSLDTSVSTAYLQISSLKADDTAVYFCSRSRGKNEAWFAYWGQGTLVTVSS
VL: DIVMTQTPLSLPVTPGEPASISCRSSQSLVHRNGNTYLHWYLQKPGQSPQLLIYTVSNRFSGVPDRFSGSGSGTDFTLKISRVEAEDVGVYFCSQSSHVPPTFGQGTKLEIK
notes: Tested as IgG; also called hLL1 heavy chain with hzLL1-Vk1a light chain
Consider B3, for which, in assay [4], the Kd turned out to be 5.7 nM, the koff worked out at 0.00058 s⁻¹ and the kon is 100000 M⁻¹ s⁻¹. For the same molecule, in assay [5], the Kd amounted to 0.85 nM, the off-rate (koff) stood at 0.00018 s⁻¹ and the kon is 210000 M⁻¹ s⁻¹.

B4: Mil_HCx hzVk1b (antibody, V domains shown)
VH: QVQLQQSGSELKKPGASVKVSCKASGYTFTNYGVNWIKQAPGQGLQWMGWINPNTGEPTFDDDFKGRFAFSLDTSVSTAYLQISSLKADDTAVYFCSRSRGKNEAWFAYWGQGTLVTVSS
VL: DVVMTQSPLSLPVTLGQPASISCRSSQSLVHRNGNTYLHWYQQRPGQSPRLLIYTVSNRFSGVPDRFSGSGSGTDFTLKISRVEAEDVGVYFCSQSSHVPPTFGQGTKLEIK
notes: Tested as IgG; also called hLL1 heavy chain with hzLL1-Vk1b light chain
As for B4, in assay [4], the Kd is 5.1 nM, the koff came to 0.00058 s⁻¹ and the kon is 110000 M⁻¹ s⁻¹. In assay [5], the Kd came to 0.72 nM, the off-rate (koff) came to 0.00017 s⁻¹ and the kon turned out to be 230000 M⁻¹ s⁻¹.

B5: Hcmil x LCmil_NQ (antibody, V domains shown)
VH: QVQLQQSGSELKKPGASVKVSCKASGYTFTNYGVNWIKQAPGQGLQWMGWINPNTGEPTFDDDFKGRFAFSLDTSVSTAYLQISSLKADDTAVYFCSRSRGKNEAWFAYWGQGTLVTVSS
VL: DIQLTQSPLSLPVTLGQPASISCRSSQSLVHRNQNTYLHWFQQRPGQSPRLLIYTVSNRFSGVPDRFSGSGSGTDFTLKISRVEAEDVGVYFCSQSSHVPPTFGAGTRLEIK
notes: Tested as IgG; also called hLL1 heavy chain with hLL1 (NQ) light chain
For B5, in assay [4], the Kd turned out to be 26 nM, the off-rate constant (koff) amounted to 0.00077 s⁻¹ and the kon was determined as 30000 M⁻¹ s⁻¹. In assay [5], the Kd was determined as 3.4 nM, the dissociation rate constant (koff) amounted to 0.00033 s⁻¹ and the kon was determined as 96000 M⁻¹ s⁻¹.

B6: VHmil x VK1aNQ (antibody, V domains shown)
VH: QVQLQQSGSELKKPGASVKVSCKASGYTFTNYGVNWIKQAPGQGLQWMGWINPNTGEPTFDDDFKGRFAFSLDTSVSTAYLQISSLKADDTAVYFCSRSRGKNEAWFAYWGQGTLVTVSS
VL: DIVMTQTPLSLPVTPGEPASISCRSSQSLVHRNQNTYLHWYLQKPGQSPQLLIYTVSNRFSGVPDRFSGSGSGTDFTLKISRVEAEDVGVYFCSQSSHVPPTFGQGTKLEIK
notes: Tested as IgG; also called VHmil × VK1aNQ; hLL1 heavy chain with hzLL1-Vk1a (NQ) light chain
As for B6, in assay [4], the Kd was found to be 5.9 nM, the off-rate (koff) was 0.00062 s⁻¹ and the kon was 100000 M⁻¹ s⁻¹. Also, in assay [5], the Kd was found to be 0.91 nM, the koff is 0.00018 s⁻¹ and the kon is 200000 M⁻¹ s⁻¹.
